TGI data for 15 compounds are collected here from PubChem BioAssay (NCI).

The TGI is the concentration giving total growth inhibition.

Among the test systems are CCRF-CEM leukemia; DU-145 prostate; HCT-116 colon; IGROV1 ovarian; MALME-3M melanoma; MCF7 breast; MOLT-4 leukemia; NCI-H226 lung; NCI-H23 lung; NCI-H522 lung; OVCAR-8 ovarian; SF-295 CNS; SF-539 CNS; SK-MEL-28 melanoma; SNB-19 CNS; HS 578T breast.
What all share (test): DTP human tumour cell line panel, 48 h

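Where inhibition never reached the appropriate level, the endpoint shown equals the highest concentration tested. Otherwise, values were interpolated linearly from a five-concentration, 48-hour dose response in 96-well plates. At the TGI there is no net growth.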

Regarding `CS(=O)(=O)O[C@H]1[C@H](O)c2ccccc2[C@@H]1N=[N+]=[N-]`, the TGI in the assay on CCRF-CEM leukemia, in the assay with DU-145 prostate, in the assay on HCT-116 colon, in the assay on IGROV1 ovarian, in the assay with MALME-3M melanoma and in the assay with MCF7 breast was over 100 µM throughout. Besides, the TGI with MOLT-4 leukemia, with NCI-H226 lung, in the assay on NCI-H23 lung, with NCI-H522 lung, in the assay on OVCAR-8 ovarian and with SF-295 CNS was over 100 µM throughout. Moreover, the concentration for total growth inhibition (TGI) in the assay with SF-539 CNS, in the assay with SK-MEL-28 melanoma and in the assay with SNB-19 CNS was over 100 µM in each case.

Consider `C[N+]12C=CC=C1C(N1CCCC1)c1scc(-c3ccc(F)cc3)c12` (stereo not given), for which the TGI in the assay on CCRF-CEM leukemia is 4.4 µM; with DU-145 prostate, over 100 µM; in the assay on HCT-116 colon, over 100 µM; in the assay on HS 578T breast, over 100 µM; in the assay with IGROV1 ovarian it was 36.1 µM; in the assay on MALME-3M melanoma it was over 100 µM. In addition, the TGI in the assay with MCF7 breast was 88.6 µM; in the assay on MOLT-4 leukemia, 78.1 µM; in the assay with NCI-H226 lung it was over 100 µM; with NCI-H522 lung, over 100 µM; in the assay on OVCAR-8 ovarian it was over 100 µM; in the assay on SF-295 CNS, over 100 µM. Also, the TGI with SK-MEL-28 melanoma and with SNB-19 CNS was over 100 µM in each case.

On to `O=c1[nH]c2c(c(=O)[nH]1)C(c1ccc([N+](=O)[O-])cc1)c1c([nH]c(=O)[nH]c1=O)O2`, for which the TGI is 90.5 µM with CCRF-CEM leukemia; over 100 µM in the assay with DU-145 prostate; over 100 µM in the assay on HCT-116 colon; over 100 µM in the assay with HS 578T breast; over 100 µM in the assay with IGROV1 ovarian; over 100 µM with NCI-H226 lung. Also, the TGI in the assay with NCI-H23 lung was over 100 µM; in the assay on NCI-H522 lung, 82.9 µM; in the assay with OVCAR-8 ovarian, over 100 µM; in the assay with SF-295 CNS, over 100 µM; in the assay on SK-MEL-28 melanoma, over 100 µM; in the assay on SNB-19 CNS it was over 100 µM.

`O=C(NCCCN(CCCCN(CCCNC(=O)c1cc(S(=O)(=O)O)cc(O)c1O)C(=O)c1cc(S(=O)(=O)O)cc(O)c1O)C(=O)c1cc(S(=O)(=O)O)cc(O)c1O)c1cc(S(=O)(=O)O)cc(O)c1O`: the TGI in the assay on CCRF-CEM leukemia, with DU-145 prostate, with HCT-116 colon, in the assay with HS 578T breast, with IGROV1 ovarian and in the assay with MALME-3M melanoma was over 100 µM in each case. The concentration for total growth inhibition (TGI) in the assay on NCI-H226 lung, in the assay on NCI-H23 lung, in the assay on NCI-H522 lung, in the assay on OVCAR-8 ovarian, with SK-MEL-28 melanoma and in the assay on SNB-19 CNS was over 100 µM in each case.

For `Cc1cc2c(cc1Cl)SC(NNC1=NCCN1)=NS2(=O)=O`, the TGI in the assay with CCRF-CEM leukemia, in the assay with DU-145 prostate, in the assay on HCT-116 colon, with HS 578T breast, with IGROV1 ovarian and in the assay with MALME-3M melanoma was over 10 µM throughout. The TGI in the assay with MOLT-4 leukemia, in the assay on NCI-H226 lung, in the assay with NCI-H23 lung, in the assay on NCI-H522 lung, in the assay on OVCAR-8 ovarian and in the assay with SF-295 CNS was over 10 µM throughout. In addition, the TGI in the assay on SF-539 CNS, in the assay on SK-MEL-28 melanoma and in the assay with SNB-19 CNS was over 10 µM throughout.

Turning to `NC(=O)CCC(NC(=O)c1c2ccccc2nc2ccccc12)C(=O)O` (stereo not given), the TGI with CCRF-CEM leukemia, in the assay with DU-145 prostate, in the assay with HCT-116 colon, with IGROV1 ovarian, in the assay on MALME-3M melanoma and with MCF7 breast was over 100 µM each time. Moreover, the TGI in the assay with MOLT-4 leukemia, with NCI-H226 lung, in the assay with NCI-H23 lung, in the assay with NCI-H522 lung, in the assay on OVCAR-8 ovarian and in the assay with SF-295 CNS was over 100 µM throughout. Further, the concentration for total growth inhibition (TGI) in the assay on SF-539 CNS, in the assay with SK-MEL-28 melanoma and with SNB-19 CNS was over 100 µM in each case.

For `OCC1CCCC1O` (stereo not given), the TGI in the assay with CCRF-CEM leukemia, in the assay on DU-145 prostate, with HCT-116 colon, in the assay with IGROV1 ovarian, in the assay on MALME-3M melanoma and in the assay with MCF7 breast was over 100 µM throughout. Also, the total growth inhibition concentration (TGI) in the assay on MOLT-4 leukemia, in the assay with NCI-H226 lung, in the assay on NCI-H23 lung, with NCI-H522 lung, with OVCAR-8 ovarian and with SF-295 CNS was over 100 µM in each case. For the same compound, the total growth inhibition concentration (TGI) in the assay on SF-539 CNS, with SK-MEL-28 melanoma and with SNB-19 CNS was over 100 µM in each case.

With `Cc1ccc(C(=O)N/N=C(\N=Nc2ccccc2Cl)c2ccc(N(C)C)cc2)cc1`, the total growth inhibition concentration (TGI) with CCRF-CEM leukemia is over 100 µM; in the assay on DU-145 prostate, 70.6 µM; in the assay with HCT-116 colon it was over 100 µM; in the assay with HS 578T breast, over 100 µM; in the assay on IGROV1 ovarian it was over 100 µM; in the assay on MCF7 breast it was over 100 µM. Besides, the TGI in the assay on MOLT-4 leukemia, in the assay on NCI-H226 lung, with NCI-H23 lung, with NCI-H522 lung, with OVCAR-8 ovarian and in the assay with SF-295 CNS was over 100 µM each time. Also, the TGI in the assay with SF-539 CNS was over 100 µM; in the assay on SK-MEL-28 melanoma, over 100 µM; in the assay with SNB-19 CNS, 84.5 µM.

As to `CCOC(=O)C(NC(=O)CC)(Nc1ccc(F)cc1F)C(F)(F)F` (stereo not given), the TGI in the assay on CCRF-CEM leukemia, in the assay on HCT-116 colon, in the assay with HS 578T breast, in the assay on IGROV1 ovarian, with MOLT-4 leukemia and with NCI-H23 lung was over 100 µM in each case. Further, the total growth inhibition concentration (TGI) in the assay on OVCAR-8 ovarian, in the assay on SF-539 CNS, in the assay with SK-MEL-28 melanoma and in the assay with SNB-19 CNS was over 100 µM in each case.

`O=S(=O)(CCC[C@H]1[C@@H](CCOCc2ccccc2)C2CCCN1O2)c1ccccc1` (stereo not given in full): the TGI in the assay on CCRF-CEM leukemia, in the assay on HCT-116 colon, with HS 578T breast, in the assay with IGROV1 ovarian, in the assay on MALME-3M melanoma and in the assay on MCF7 breast was over 100 µM in each case. In addition, the concentration for total growth inhibition (TGI) in the assay on MOLT-4 leukemia, in the assay with NCI-H226 lung, in the assay on NCI-H23 lung, in the assay on NCI-H522 lung, in the assay with OVCAR-8 ovarian and in the assay with SF-295 CNS was over 100 µM in each case. For the same compound, the total growth inhibition concentration (TGI) in the assay on SF-539 CNS, with SK-MEL-28 melanoma and in the assay with SNB-19 CNS was over 100 µM in each case.

Turning to `CCOc1cccc(-c2cc(=O)c3cc4c(cc3[nH]2)OCO4)c1`, the concentration for total growth inhibition (TGI) is over 100 µM in the assay with DU-145 prostate; 7.85 µM with HCT-116 colon; 13.5 µM with HS 578T breast; over 100 µM in the assay on IGROV1 ovarian; over 75.1 µM in the assay on MALME-3M melanoma; over 100 µM in the assay on MCF7 breast. The TGI with MOLT-4 leukemia is over 100 µM; with NCI-H226 lung, 15.1 µM; in the assay on NCI-H23 lung, over 100 µM; in the assay with NCI-H522 lung, 0.684 µM; in the assay with OVCAR-8 ovarian it was 2.7 µM; with SF-295 CNS it was 0.329 µM. In addition, the concentration for total growth inhibition (TGI) in the assay with SF-539 CNS is 0.549 µM; with SK-MEL-28 melanoma, over 100 µM; in the assay on SNB-19 CNS, over 27.1 µM.

As for `O=C1C=C(c2ccccc2)O/C1=C\C(=O)c1ccc(Cl)cc1`, the TGI in the assay with DU-145 prostate is over 100 µM; with HCT-116 colon, 31.2 µM; with HS 578T breast, 61.5 µM; with IGROV1 ovarian, 35.8 µM; in the assay with MALME-3M melanoma, 29.4 µM; with MCF7 breast it was 34.9 µM. Besides, the concentration for total growth inhibition (TGI) in the assay with MOLT-4 leukemia was over 100 µM; in the assay with NCI-H226 lung, 44.5 µM; in the assay with NCI-H23 lung it was 65.8 µM; with NCI-H522 lung, 44.2 µM; with OVCAR-8 ovarian, 83.4 µM; in the assay with SF-539 CNS, over 100 µM. Moreover, the TGI in the assay on SK-MEL-28 melanoma is 38.5 µM; with SNB-19 CNS it was over 100 µM.

With `CCOC(=O)c1sc2nc1CSc1sc(=S)sc1SCc1nc(sc1C(=O)OCC)-c1nc(c(C(=O)OCC)s1)CSc1sc(=S)sc1SCc1nc-2sc1C(=O)OCC`, the TGI in the assay on CCRF-CEM leukemia, in the assay with HCT-116 colon, in the assay with HS 578T breast, in the assay on IGROV1 ovarian, in the assay with MALME-3M melanoma and with MCF7 breast was over 10 µM in each case. In addition, the total growth inhibition concentration (TGI) in the assay on MOLT-4 leukemia, with NCI-H23 lung, in the assay on NCI-H522 lung, with OVCAR-8 ovarian, with SF-295 CNS and in the assay with SF-539 CNS was over 10 µM in each case. Moreover, the concentration for total growth inhibition (TGI) with SK-MEL-28 melanoma and with SNB-19 CNS was over 10 µM each time.

`Cc1cc(C)nc(NS(=O)(=O)c2ccc(NC(=O)NC(F)(F)F)cc2)n1`: the concentration for total growth inhibition (TGI) with CCRF-CEM leukemia, with HCT-116 colon, in the assay on HS 578T breast, in the assay on IGROV1 ovarian, with MOLT-4 leukemia and in the assay on NCI-H23 lung was over 100 µM in each case. Besides, the concentration for total growth inhibition (TGI) in the assay on OVCAR-8 ovarian, in the assay with SF-539 CNS, with SK-MEL-28 melanoma and in the assay on SNB-19 CNS was over 100 µM in each case.

Regarding `COc1cc(C2OC[C@@H]3C(=O)OC[C@H]23)cc(O)c1OC` (stereo not given in full), the concentration for total growth inhibition (TGI) in the assay on CCRF-CEM leukemia, in the assay on DU-145 prostate, in the assay with HCT-116 colon, in the assay on HS 578T breast, in the assay on IGROV1 ovarian and in the assay with MCF7 breast was over 100 µM throughout. Besides, the TGI in the assay on MOLT-4 leukemia, in the assay with NCI-H226 lung, in the assay on NCI-H23 lung, in the assay on NCI-H522 lung, in the assay on OVCAR-8 ovarian and with SF-295 CNS was over 100 µM in each case. The TGI with SF-539 CNS and with SNB-19 CNS was over 100 µM throughout.
